What all share (format): functional
One experiment concerns Escherichia coli. The experiment in a line: Compound was tested for antibacterial activity against Escherichia coli organism.
For the next experiment, the system named is Pseudomonas. The experiment in a line: Compound was tested for antibacterial activity against Pseudomonas organism.
The next experiment concerns Staphylococcus. The experiment can be described thus: Compound was tested for antibacterial activity against Staphylococcus organism.

In brackets after ≈: the same amount, converted by molar mass.

Take `CSCC[C@H](N)C(=O)NCC[C@@H]1NC(=O)[C@H](CCN)NC(=O)[C@H](CC(C)C)NC(=O)[C@@H](Cc2ccccc2)NC(=O)[C@H](CCN)NC(=O)[C@@H](NC(=O)[C@H](CCN)NC(=O)[C@@H](NC(=O)[C@H](CCN)NC(=O)CCCCC(C)C)[C@@H](C)O)CCNC(=O)[C@H]([C@@H](C)O)NC1=O`: the MIC in the experiment on Escherichia coli amounted to 0.77 mg/L (≈ 0.583 µM); in the experiment with Pseudomonas, 0.416 mg/L (≈ 0.315 µM); against Staphylococcus it was 5.65 mg/L (≈ 4.28 µM).
Regarding `CCNCC[C@H](NC(=O)CCCCC(C)C)C(=O)N[C@H](C(=O)N[C@@H](CCN)C(=O)N[C@H]1CCNC(=O)[C@H]([C@@H](C)O)NC(=O)[C@H](CCN)NC(=O)[C@H](CCN)NC(=O)[C@H](CC(C)C)NC(=O)[C@@H](Cc2ccccc2)NC(=O)[C@H](CCN)NC1=O)[C@@H](C)O`, the MIC was determined as 0.112 mg/L (≈ 0.092 µM) against Escherichia coli, 0.146 mg/L (≈ 0.12 µM) with Pseudomonas and 2.3 mg/L (≈ 1.89 µM) in the experiment with Staphylococcus.
The matching figures for `CCNCC[C@@H]1NC(=O)[C@H](CCN)NC(=O)[C@H](CC(C)C)NC(=O)[C@@H](Cc2ccccc2)NC(=O)[C@H](CCN)NC(=O)[C@@H](NC(=O)[C@H](CCN)NC(=O)[C@@H](NC(=O)[C@H](CCN)NC(=O)CCCCC(C)C)[C@@H](C)O)CCNC(=O)[C@H]([C@@H](C)O)NC1=O`: 0.492 mg/L (≈ 0.404 µM), 0.413 mg/L (≈ 0.339 µM) and 9.5 mg/L (≈ 7.8 µM).
The matching figures for `CC(C)CCCCC(=O)N[C@@H](CCN)C(=O)N[C@H](C(=O)N[C@@H](CCN)C(=O)N[C@H]1CCNC(=O)[C@H]([C@@H](C)O)NC(=O)[C@H](CCNC(=O)CCl)NC(=O)[C@H](CCN)NC(=O)[C@H](CC(C)C)NC(=O)[C@@H](Cc2ccccc2)NC(=O)[C@H](CCN)NC1=O)[C@@H](C)O`: 0.454 mg/L (≈ 0.359 µM), 0.085 mg/L (≈ 0.0671 µM) and 9.5 mg/L (≈ 7.5 µM).
`CCN(CC)CC[C@@H]1NC(=O)[C@H](CCN)NC(=O)[C@H](CC(C)C)NC(=O)[C@@H](Cc2ccccc2)NC(=O)[C@H](CCN)NC(=O)[C@@H](NC(=O)[C@H](CCN)NC(=O)[C@@H](NC(=O)[C@H](CCN)NC(=O)CCCCC(C)C)[C@@H](C)O)CCNC(=O)[C@H]([C@@H](C)O)NC1=O`: the MIC against Escherichia coli was 0.995 mg/L (≈ 0.799 µM); in the experiment with Pseudomonas, 0.763 mg/L (≈ 0.613 µM); with Staphylococcus it was 9.5 mg/L (≈ 7.63 µM).
In the case of `CCC(C)CCCCC(=O)NCC[C@@H]1NC(=O)[C@H](CCN)NC(=O)[C@H](CC(C)C)NC(=O)[C@@H](Cc2ccccc2)NC(=O)[C@H](CCN)NC(=O)[C@@H](NC(=O)[C@H](CCN)NC(=O)[C@@H](NC(=O)[C@H](CCN)NC(=O)CCCCC(C)C)[C@@H](C)O)CCNC(=O)[C@H]([C@@H](C)O)NC1=O` (stereo not given in full), the MIC against Escherichia coli amounted to 3.1 mg/L (≈ 2.33 µM); in the experiment on Pseudomonas, 2.18 mg/L (≈ 1.64 µM); in the experiment with Staphylococcus, 0.7 mg/L (≈ 0.526 µM).
On to `CC(C)CCCCC(=O)N[C@@H](CCN)C(=O)N[C@H](C(=O)N[C@@H](CCN)C(=O)N[C@H]1CCNC(=O)[C@H]([C@@H](C)O)NC(=O)[C@H](CCNC(=O)CO)NC(=O)[C@H](CCN)NC(=O)[C@H](CC(C)C)NC(=O)[C@@H](Cc2ccccc2)NC(=O)[C@H](CCN)NC1=O)[C@@H](C)O`, for which the minimum inhibitory concentration (MIC) is 1.54 mg/L (≈ 1.23 µM) in the experiment on Escherichia coli, 1.53 mg/L (≈ 1.23 µM) in the experiment with Pseudomonas and 22.6 mg/L (≈ 18.1 µM) in the experiment on Staphylococcus.
As for `CCN(CC)CC[C@H](NC(=O)CCCCC(C)C)C(=O)N[C@H](C(=O)N[C@@H](CCN)C(=O)N[C@H]1CCNC(=O)[C@H]([C@@H](C)O)NC(=O)[C@H](CCN)NC(=O)[C@H](CCN)NC(=O)[C@H](CC(C)C)NC(=O)[C@@H](Cc2ccccc2)NC(=O)[C@H](CCN)NC1=O)[C@@H](C)O`, the figures for the minimum inhibitory concentration (MIC) against Escherichia coli, in the experiment on Pseudomonas and against Staphylococcus were 0.208 mg/L (≈ 0.167 µM), 0.206 mg/L (≈ 0.165 µM) and 2.4 mg/L (≈ 1.93 µM), respectively.
Regarding `CC(C)CCCCC(=O)N[C@@H](CCN)C(=O)N[C@H](C(=O)N[C@@H](CCN)C(=O)N[C@H]1CCNC(=O)[C@H]([C@@H](C)O)NC(=O)[C@H](CCN(C)C)NC(=O)[C@H](CCN)NC(=O)[C@H](CC(C)C)NC(=O)[C@@H](Cc2ccccc2)NC(=O)[C@H](CCN)NC1=O)[C@@H](C)O`, the figures for the minimum inhibitory concentration (MIC) against Escherichia coli, against Pseudomonas and against Staphylococcus were 0.537 mg/L (≈ 0.441 µM), 0.456 mg/L (≈ 0.375 µM) and 16 mg/L (≈ 13.1 µM), respectively.
With `CC(C)CCCCC(=O)N[C@@H](CCN)C(=O)N[C@H](C(=O)N[C@@H](CCN)C(=O)N[C@H]1CCNC(=O)[C@H]([C@@H](C)O)NC(=O)[C@H](CCNC(=O)[C@@H](N)CS)NC(=O)[C@H](CCN)NC(=O)[C@H](CC(C)C)NC(=O)[C@@H](Cc2ccccc2)NC(=O)[C@H](CCN)NC1=O)[C@@H](C)O`, the results for the MIC against Escherichia coli, in the experiment with Pseudomonas and against Staphylococcus were 1.68 mg/L (≈ 1.3 µM), 2.82 mg/L (≈ 2.18 µM) and 11.3 mg/L (≈ 8.75 µM), respectively.
As for `CC(=O)NCC[C@H](NC(=O)CCCCC(C)C)C(=O)N[C@H](C(=O)N[C@@H](CCN)C(=O)N[C@H]1CCNC(=O)[C@H]([C@@H](C)O)NC(=O)[C@H](CCN)NC(=O)[C@H](CCN)NC(=O)[C@H](CC(C)C)NC(=O)[C@@H](Cc2ccccc2)NC(=O)[C@H](CCN)NC1=O)[C@@H](C)O`, the values for the minimum inhibitory concentration (MIC) in the experiment on Escherichia coli, with Pseudomonas and in the experiment on Staphylococcus were 1.3 mg/L (≈ 1.06 µM), 2.8 mg/L (≈ 2.27 µM) and 2.8 mg/L (≈ 2.27 µM), respectively.
On to `CC(C)CCCCC(=O)N[C@@H](CCN)C(=O)N[C@H](C(=O)N[C@@H](CCN)C(=O)N[C@H]1CCNC(=O)[C@H]([C@@H](C)O)NC(=O)[C@H](CCNC(=O)[C@@H](N)CCCCN)NC(=O)[C@H](CCN)NC(=O)[C@H](CC(C)C)NC(=O)[C@@H](Cc2ccccc2)NC(=O)[C@H](CCN)NC1=O)[C@@H](C)O`, for which the minimal inhibitory concentration (MIC) against Escherichia coli was found to be 0.173 mg/L (≈ 0.131 µM); against Pseudomonas, 0.032 mg/L (≈ 0.0243 µM); in the experiment on Staphylococcus it was 2.8 mg/L (≈ 2.13 µM).
The matching figures for `CC(C)CCCCC(=O)N[C@@H](CCNC(=O)[C@@H](N)CCCN=C(N)N)C(=O)N[C@H](C(=O)N[C@@H](CCN)C(=O)N[C@H]1CCNC(=O)[C@H]([C@@H](C)O)NC(=O)[C@H](CCN)NC(=O)[C@H](CCN)NC(=O)[C@H](CC(C)C)NC(=O)[C@@H](Cc2ccccc2)NC(=O)[C@H](CCN)NC1=O)[C@@H](C)O`: 0.453 mg/L (≈ 0.337 µM), 0.207 mg/L (≈ 0.154 µM) and 4.48 mg/L (≈ 3.33 µM).
In the case of `CC(C)CCCCC(=O)N[C@@H](CCN)C(=O)N[C@H](C(=O)N[C@@H](CCN)C(=O)N[C@H]1CCNC(=O)[C@H]([C@@H](C)O)NC(=O)[C@H](CCNC(=O)[C@@H](N)CCC/N=C(/N)N[N+](=O)[O-])NC(=O)[C@H](CCN)NC(=O)[C@H](CC(C)C)NC(=O)[C@@H](Cc2ccccc2)NC(=O)[C@H](CCN)NC1=O)[C@@H](C)O`, the MIC in the experiment with Escherichia coli is 1.3 mg/L (≈ 0.935 µM); in the experiment with Pseudomonas, 2.6 mg/L (≈ 1.87 µM); against Staphylococcus, 1.2 mg/L (≈ 0.863 µM).
Take `CC(C)CCCCC(=O)N[C@@H](CCN)C(=O)N[C@H](C(=O)N[C@@H](CCN)C(=O)N[C@H]1CCNC(=O)[C@H]([C@@H](C)O)NC(=O)[C@H](CCNC(=O)C(Cl)Cl)NC(=O)[C@H](CCN)NC(=O)[C@H](CC(C)C)NC(=O)[C@@H](Cc2ccccc2)NC(=O)[C@H](CCN)NC1=O)[C@@H](C)O`: the minimum inhibitory concentration (MIC) came out at 1.54 mg/L (≈ 1.18 µM) in the experiment with Escherichia coli, 0.995 mg/L (≈ 0.765 µM) with Pseudomonas and 0.82 mg/L (≈ 0.631 µM) with Staphylococcus.

By MIC is commonly meant the least concentration at which growth counts as inhibited.
